Measured values: PubChem BioAssay (NCI)
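Results reflect a 48-hour exposure of cells in 96-well plates to compound at five concentrations. TGI denotes the concentration required for complete inhibition of growth.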

How the values were obtained:
Experiment in all cases: inhibition of tumour cell growth, NCI panel, 48 h
U251 CNS = tested on: U251 CNS
A549 NSCLC = tested on: A549 NSCLC
NCI-H522 lung = tested on: NCI-H522 lung
UO-31 renal = tested on: UO-31 renal
SW-620 colon = tested on: SW-620 colon
MDA-N = tested on: MDA-N
MDA-MB-231 breast = tested on: MDA-MB-231 breast
HOP-62 NSCLC = tested on: HOP-62 NSCLC
HS 578T breast = tested on: HS 578T breast
HCT-116 colon = tested on: HCT-116 colon
IGROV1 ovarian = tested on: IGROV1 ovarian
SR leukemia = tested on: SR leukemia
786-0 renal = tested on: 786-0 renal
SNB-19 CNS = tested on: SNB-19 CNS
A498 renal = tested on: A498 renal
MDA-MB-435 = tested on: MDA-MB-435
MALME-3M melanoma = tested on: MALME-3M melanoma
EKVX NSCLC = tested on: EKVX NSCLC
NCI-H460 lung = tested on: NCI-H460 lung
SK-OV-3 ovarian = tested on: SK-OV-3 ovarian

| Structure (SMILES) | TGI (U251 CNS) | TGI (A549 NSCLC) | TGI (NCI-H522 lung) | TGI (UO-31 renal) | TGI (SW-620 colon) | TGI (MDA-N) | TGI (MDA-MB-231 breast) | TGI (HOP-62 NSCLC) | TGI (HS 578T breast) | TGI (HCT-116 colon) | TGI (IGROV1 ovarian) | TGI (SR leukemia) | TGI (786-0 renal) | TGI (SNB-19 CNS) | TGI (A498 renal) | TGI (MDA-MB-435) | TGI (MALME-3M melanoma) | TGI (EKVX NSCLC) | TGI (NCI-H460 lung) | TGI (SK-OV-3 ovarian) |
| --- | --- | --- | --- | --- | --- | --- | --- | --- | --- | --- | --- | --- | --- | --- | --- | --- | --- | --- | --- | --- |
| Cc1cc(-c2nc3ccc(F)cc3s2)ccc1N | > 100 µM | > 100 µM | > 100 µM | > 100 µM | > 100 µM | > 100 µM | > 100 µM | > 100 µM | > 100 µM | > 100 µM | > 100 µM | > 100 µM | > 100 µM | > 100 µM | > 100 µM | > 100 µM | > 100 µM | > 100 µM | – | – |
| CN(CC(=O)O)c1ncc2c(n1)-c1ccccc1OC2 | > 100 µM | > 100 µM | > 100 µM | > 100 µM | > 100 µM | > 100 µM | > 100 µM | – | > 100 µM | > 100 µM | > 100 µM | > 100 µM | > 100 µM | > 100 µM | > 100 µM | > 100 µM | > 100 µM | > 100 µM | > 100 µM | – |
| O=C1C(Cl)C(c2cc3cc(Br)ccc3nc2Cl)N1c1ccc(Cl)cc1 (stereo not given) | – | > 25 µM | 8.25 µM | 3.28 µM | > 25 µM | 15.9 µM | 7.35 µM | > 25 µM | > 25 µM | 12.5 µM | 7.17 µM | 7.46 µM | 9.22 µM | > 25 µM | > 25 µM | 17.7 µM | 8.91 µM | 8.13 µM | 20.9 µM | > 25 µM |
| O=C(c1cc2c(c3ccccc13)NCCN=C2C(F)(F)F)C(F)(F)F | 36.9 µM | – | 72.7 µM | > 100 µM | > 100 µM | > 100 µM | 51.4 µM | 53 µM | 40.6 µM | > 100 µM | > 100 µM | 21.3 µM | 84.8 µM | – | 40.3 µM | > 100 µM | – | > 100 µM | 34.4 µM | 93.2 µM |
| C#CCCCOc1ncccn1 | > 100 µM | > 100 µM | > 100 µM | > 100 µM | > 100 µM | > 100 µM | > 100 µM | > 100 µM | > 100 µM | > 100 µM | > 100 µM | > 100 µM | > 100 µM | > 100 µM | > 100 µM | > 100 µM | > 100 µM | > 100 µM | – | > 100 µM |
| Cc1ccc(C(=O)OCC(C)C)cc1N=NN(C)C | > 100 µM | > 100 µM | > 100 µM | > 100 µM | > 100 µM | > 100 µM | > 100 µM | > 100 µM | > 100 µM | > 100 µM | > 100 µM | > 100 µM | > 100 µM | > 100 µM | – | > 100 µM | > 100 µM | > 100 µM | > 100 µM | > 100 µM |
